Experimental findings from ChEMBL document CHEMBL1201862, “PubChem BioAssay data set” (2004) are described below.

Structures are written as SMILES. Activity calls are given as the source filed them. For most assays here, no stated cut-off is given here; in the data, actives have a measured IC50 and inactives only a lower limit. Some results are limits rather than exact numbers.

For orientation: IC50 means the midpoint of a concentration-inhibition curve. A word on the EC50: it is the concentration at which the effect is half-maximal. Usually AC50 stands for the concentration at which the activity in the assay is half-maximal.

In assay [1] the target is T1, Sentrin-specific protease 6 (Homo sapiens, UniProt Q9GZR1).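 Further: Luminescence-based dose-response confirmatory assay of SENP6 inhibition, following up an ultra-high-throughput screen.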
T1 sequence (Q9GZR1 whole entry): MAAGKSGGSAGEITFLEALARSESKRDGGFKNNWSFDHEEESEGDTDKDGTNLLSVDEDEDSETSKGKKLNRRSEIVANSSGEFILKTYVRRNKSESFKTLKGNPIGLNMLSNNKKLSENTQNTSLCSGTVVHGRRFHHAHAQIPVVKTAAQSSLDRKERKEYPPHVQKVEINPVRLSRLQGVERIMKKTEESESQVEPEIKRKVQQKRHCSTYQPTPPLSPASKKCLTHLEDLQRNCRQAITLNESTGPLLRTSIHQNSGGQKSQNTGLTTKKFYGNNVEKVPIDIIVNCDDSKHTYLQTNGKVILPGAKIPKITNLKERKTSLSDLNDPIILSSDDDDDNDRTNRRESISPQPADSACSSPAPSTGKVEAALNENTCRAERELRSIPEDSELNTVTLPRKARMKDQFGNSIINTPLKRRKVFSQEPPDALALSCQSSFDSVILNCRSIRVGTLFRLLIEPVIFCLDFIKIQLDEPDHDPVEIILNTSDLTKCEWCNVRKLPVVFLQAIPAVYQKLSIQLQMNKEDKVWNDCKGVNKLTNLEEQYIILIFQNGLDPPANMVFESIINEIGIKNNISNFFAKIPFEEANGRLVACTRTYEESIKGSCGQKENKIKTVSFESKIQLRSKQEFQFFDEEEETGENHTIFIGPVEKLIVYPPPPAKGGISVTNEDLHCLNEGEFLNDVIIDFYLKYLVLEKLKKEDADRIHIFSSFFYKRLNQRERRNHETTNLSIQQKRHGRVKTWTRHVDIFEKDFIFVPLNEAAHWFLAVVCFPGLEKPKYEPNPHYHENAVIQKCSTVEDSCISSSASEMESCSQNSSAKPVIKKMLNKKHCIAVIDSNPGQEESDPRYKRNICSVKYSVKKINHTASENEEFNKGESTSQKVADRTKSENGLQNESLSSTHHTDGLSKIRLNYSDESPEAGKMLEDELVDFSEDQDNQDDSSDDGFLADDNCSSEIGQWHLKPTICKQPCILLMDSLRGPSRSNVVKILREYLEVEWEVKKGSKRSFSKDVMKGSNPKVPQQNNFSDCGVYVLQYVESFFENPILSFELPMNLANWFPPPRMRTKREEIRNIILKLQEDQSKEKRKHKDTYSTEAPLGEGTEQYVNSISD
The format is functional.

Assay [2] has as its target T2, Sentrin-specific protease 8 (Homo sapiens, UniProt Q96LD8).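 Further: luminescence read-out of SENP8 inhibition, dose-response confirmation following an ultra-high-throughput screen.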
T2 sequence (Q96LD8 whole entry): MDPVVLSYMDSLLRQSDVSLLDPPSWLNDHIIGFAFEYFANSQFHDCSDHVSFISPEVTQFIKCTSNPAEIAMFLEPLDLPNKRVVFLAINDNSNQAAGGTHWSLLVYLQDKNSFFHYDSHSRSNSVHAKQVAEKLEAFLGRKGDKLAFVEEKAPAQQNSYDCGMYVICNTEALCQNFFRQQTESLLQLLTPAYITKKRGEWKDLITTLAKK
Format: functional.

Assay [3] has as its target T3, Caspase-3 (Homo sapiens, UniProt P42574).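 Further: Dose-response selectivity test against caspase-3 for candidate inhibitors of sentrin-specific proteases (SENPs).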
T3 sequence (P42574 whole entry): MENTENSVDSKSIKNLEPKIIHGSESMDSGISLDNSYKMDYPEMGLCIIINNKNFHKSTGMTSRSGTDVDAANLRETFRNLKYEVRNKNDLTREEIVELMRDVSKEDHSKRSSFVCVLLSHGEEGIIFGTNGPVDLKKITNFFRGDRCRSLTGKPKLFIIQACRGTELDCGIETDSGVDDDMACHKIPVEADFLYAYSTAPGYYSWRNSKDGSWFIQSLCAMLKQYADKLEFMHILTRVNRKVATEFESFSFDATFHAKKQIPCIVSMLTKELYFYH
Format: functional.

In assay [4] the target is T4, Sentrin-specific protease 7 (Homo sapiens, UniProt Q9BQF6).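 Further: Luminescence-based dose-response confirmation of ultra-high-throughput screening hits, measuring inhibition of SENP7.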
T4 sequence (Q9BQF6 whole entry): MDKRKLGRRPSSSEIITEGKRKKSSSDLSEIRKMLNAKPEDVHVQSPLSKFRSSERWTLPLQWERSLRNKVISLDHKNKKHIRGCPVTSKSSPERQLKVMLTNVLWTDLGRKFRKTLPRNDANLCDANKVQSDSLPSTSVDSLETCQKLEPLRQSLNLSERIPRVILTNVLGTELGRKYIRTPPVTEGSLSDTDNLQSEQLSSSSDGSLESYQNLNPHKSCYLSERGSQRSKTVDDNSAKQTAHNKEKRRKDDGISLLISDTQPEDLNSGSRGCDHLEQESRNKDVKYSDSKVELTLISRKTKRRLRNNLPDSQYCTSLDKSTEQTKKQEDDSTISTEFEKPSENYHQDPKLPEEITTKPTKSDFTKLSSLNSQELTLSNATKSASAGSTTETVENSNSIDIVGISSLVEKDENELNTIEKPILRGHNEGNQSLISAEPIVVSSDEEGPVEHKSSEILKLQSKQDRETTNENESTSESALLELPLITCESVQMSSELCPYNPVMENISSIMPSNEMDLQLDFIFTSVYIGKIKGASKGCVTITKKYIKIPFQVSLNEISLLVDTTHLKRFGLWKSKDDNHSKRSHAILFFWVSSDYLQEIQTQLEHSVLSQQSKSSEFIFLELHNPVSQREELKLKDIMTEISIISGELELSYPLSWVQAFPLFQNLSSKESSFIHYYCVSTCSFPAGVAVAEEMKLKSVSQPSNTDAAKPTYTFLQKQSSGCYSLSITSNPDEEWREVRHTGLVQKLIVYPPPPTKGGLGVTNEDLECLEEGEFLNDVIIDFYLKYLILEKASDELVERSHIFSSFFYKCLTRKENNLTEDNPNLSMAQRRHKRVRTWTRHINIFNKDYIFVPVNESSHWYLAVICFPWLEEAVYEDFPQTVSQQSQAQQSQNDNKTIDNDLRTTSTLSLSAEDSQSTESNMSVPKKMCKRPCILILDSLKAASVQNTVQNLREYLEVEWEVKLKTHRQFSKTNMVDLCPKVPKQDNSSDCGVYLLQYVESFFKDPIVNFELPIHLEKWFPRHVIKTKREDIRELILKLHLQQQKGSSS
Format: functional.

The target in assay [5] is T5, Tyrosine-protein phosphatase non-receptor type 22 (Homo sapiens, UniProt Q9Y2R2).
T5 sequence (Q9Y2R2 whole entry): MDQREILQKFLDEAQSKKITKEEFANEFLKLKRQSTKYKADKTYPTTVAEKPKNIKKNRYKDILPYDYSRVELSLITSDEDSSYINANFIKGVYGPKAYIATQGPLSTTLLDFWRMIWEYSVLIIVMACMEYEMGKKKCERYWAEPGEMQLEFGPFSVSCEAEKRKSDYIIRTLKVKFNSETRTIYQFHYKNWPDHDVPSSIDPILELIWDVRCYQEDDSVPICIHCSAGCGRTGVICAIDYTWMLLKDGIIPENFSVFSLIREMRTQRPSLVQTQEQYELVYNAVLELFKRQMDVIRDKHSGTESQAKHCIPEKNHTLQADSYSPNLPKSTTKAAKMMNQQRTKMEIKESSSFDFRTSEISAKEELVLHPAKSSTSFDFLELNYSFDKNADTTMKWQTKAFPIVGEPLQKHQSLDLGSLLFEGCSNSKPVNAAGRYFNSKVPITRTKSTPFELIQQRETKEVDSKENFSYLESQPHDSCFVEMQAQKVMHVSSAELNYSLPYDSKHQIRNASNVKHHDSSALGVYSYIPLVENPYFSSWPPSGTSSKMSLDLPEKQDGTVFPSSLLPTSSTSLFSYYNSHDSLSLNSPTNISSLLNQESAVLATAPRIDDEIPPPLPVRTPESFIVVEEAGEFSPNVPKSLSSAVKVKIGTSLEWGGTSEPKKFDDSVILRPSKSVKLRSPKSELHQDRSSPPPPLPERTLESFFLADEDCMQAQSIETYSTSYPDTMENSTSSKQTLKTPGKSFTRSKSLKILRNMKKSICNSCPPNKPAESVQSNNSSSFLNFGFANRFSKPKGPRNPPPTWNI
Format: functional.

The target in assay [6] is T6, Tyrosine-protein phosphatase non-receptor type 7 (Homo sapiens, UniProt P35236).
T6 sequence (P35236 whole entry): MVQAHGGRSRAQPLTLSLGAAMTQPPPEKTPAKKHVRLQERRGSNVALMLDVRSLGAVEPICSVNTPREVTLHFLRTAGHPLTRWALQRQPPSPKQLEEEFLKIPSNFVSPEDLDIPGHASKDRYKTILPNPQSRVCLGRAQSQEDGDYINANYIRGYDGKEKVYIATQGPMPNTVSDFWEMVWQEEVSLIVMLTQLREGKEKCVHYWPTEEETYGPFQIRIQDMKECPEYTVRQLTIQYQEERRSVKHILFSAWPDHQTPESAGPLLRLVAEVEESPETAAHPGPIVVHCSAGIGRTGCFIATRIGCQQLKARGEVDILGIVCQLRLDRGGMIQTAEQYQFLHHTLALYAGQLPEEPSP
The format is functional.

Assay [7] deals with T5, Tyrosine-protein phosphatase non-receptor type 22. The format is functional. This is another data set of the same source.
In assay [8] the target is Glucose-6-phosphate 1-dehydrogenase (Homo sapiens, UniProt P11413). The assay can be described thus: inhibition of Homo sapiens G6PD, dose series – biochemical, fluorescence, selectivity assay for P. falciparum G6PD inhibitor project, dose response (AID 504792). Format: functional.
The target in assay [9] is Large T antigen (Simian virus 40, UniProt P03070). The format is functional, Betapolyomavirus macacae.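 Further: Confirmatory-stage PubChem screen for compounds that inhibit SV40 T antigen.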
Assay [10] deals with T7, RNA-binding protein pos-1 (Caenorhabditis elegans, UniProt G5EF15).
T7 sequence (G5EF15 whole entry): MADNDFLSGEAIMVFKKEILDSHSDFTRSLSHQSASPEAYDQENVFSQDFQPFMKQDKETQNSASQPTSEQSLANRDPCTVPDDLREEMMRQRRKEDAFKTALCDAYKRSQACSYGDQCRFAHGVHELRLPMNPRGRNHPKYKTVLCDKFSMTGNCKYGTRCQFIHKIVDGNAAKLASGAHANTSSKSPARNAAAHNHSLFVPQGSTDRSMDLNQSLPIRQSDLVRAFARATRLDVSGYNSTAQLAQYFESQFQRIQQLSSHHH
The assay can be described thus: disruptors of C. elegans POS-1 RNA interaction – biochemical, fluorescence polarization, dose response (AID 1964).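 Further: purified POS-1 fused to maltose binding protein made in E. coli; potency of compounds blocking POS-1 binding to fluorescent RNA.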

Assay [11] has as its target DNA dC->dU-editing enzyme APOBEC-3G (Homo sapiens, UniProt Q9HC16). The format is functional.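 Further: Dose-response counterscreen measuring inhibition of APOBEC3G DNA deaminase activity, run while confirming APOBEC3A inhibitors.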
The target in assay [12] is UDP-galactopyranose mutase (Mycobacterium tuberculosis, UniProt P9WIQ1). The assay can be described thus: Inhibitors of Mycobacterium tuberculosis UDP-galactopyranose mutase (UGM) enzyme Measured in Biochemical System Using Plate Reader - 2105-02_Inhibitor_Dose_CherryPick_Activity. [Related pubchem assays (depositor defined):AID504439].
Assay [13] has as its target DNA dC->dU-editing enzyme APOBEC-3A (Homo sapiens, UniProt P31941). Put plainly: Dose Response confirmation of small molecule APOBEC3A DNA Deaminase Inhibitors via a fluorescence-based single-stranded DNA deaminase assay. [Related pubchem assays (depositor defined):AID493011, AID493024]. Format: functional.
The target of assay [14] is T8, Zinc finger protein mex-5 (Caenorhabditis elegans, UniProt Q9XUB2).
T8 sequence (Q9XUB2 whole entry): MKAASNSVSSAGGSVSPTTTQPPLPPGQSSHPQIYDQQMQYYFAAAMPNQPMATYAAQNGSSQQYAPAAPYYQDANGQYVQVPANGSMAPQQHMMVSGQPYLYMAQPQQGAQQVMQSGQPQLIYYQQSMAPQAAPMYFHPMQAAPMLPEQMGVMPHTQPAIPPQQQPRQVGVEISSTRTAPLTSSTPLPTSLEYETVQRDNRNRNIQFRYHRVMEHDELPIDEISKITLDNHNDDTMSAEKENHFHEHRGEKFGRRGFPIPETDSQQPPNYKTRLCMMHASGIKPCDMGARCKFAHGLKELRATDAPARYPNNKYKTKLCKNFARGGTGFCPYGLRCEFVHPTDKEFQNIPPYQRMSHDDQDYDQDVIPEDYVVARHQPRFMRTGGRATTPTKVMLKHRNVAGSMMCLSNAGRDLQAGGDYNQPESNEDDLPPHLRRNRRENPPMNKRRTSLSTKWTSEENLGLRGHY
Put plainly: potency of MEX-5 RNA-binding blockers – biochemical, C. elegans, fluorescence polarization, dose response (AID 1960). (In general: Polarisation of emitted light reports the rotation of a fluorescent probe.)

Chain of UDP-galactopyranose mutase (P9WIQ1 whole entry): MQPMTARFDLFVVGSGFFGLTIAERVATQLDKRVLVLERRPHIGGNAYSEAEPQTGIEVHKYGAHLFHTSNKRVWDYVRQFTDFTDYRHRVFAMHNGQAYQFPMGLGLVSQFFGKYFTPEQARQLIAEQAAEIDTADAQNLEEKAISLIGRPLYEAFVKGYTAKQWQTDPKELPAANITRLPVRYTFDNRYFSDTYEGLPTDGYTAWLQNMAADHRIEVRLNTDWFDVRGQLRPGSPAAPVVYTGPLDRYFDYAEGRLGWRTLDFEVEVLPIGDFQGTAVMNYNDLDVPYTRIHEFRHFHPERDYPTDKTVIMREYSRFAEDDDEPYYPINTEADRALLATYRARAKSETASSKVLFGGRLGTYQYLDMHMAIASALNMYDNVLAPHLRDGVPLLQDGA
Chain of DNA dC->dU-editing enzyme APOBEC-3G (Q9HC16 whole entry): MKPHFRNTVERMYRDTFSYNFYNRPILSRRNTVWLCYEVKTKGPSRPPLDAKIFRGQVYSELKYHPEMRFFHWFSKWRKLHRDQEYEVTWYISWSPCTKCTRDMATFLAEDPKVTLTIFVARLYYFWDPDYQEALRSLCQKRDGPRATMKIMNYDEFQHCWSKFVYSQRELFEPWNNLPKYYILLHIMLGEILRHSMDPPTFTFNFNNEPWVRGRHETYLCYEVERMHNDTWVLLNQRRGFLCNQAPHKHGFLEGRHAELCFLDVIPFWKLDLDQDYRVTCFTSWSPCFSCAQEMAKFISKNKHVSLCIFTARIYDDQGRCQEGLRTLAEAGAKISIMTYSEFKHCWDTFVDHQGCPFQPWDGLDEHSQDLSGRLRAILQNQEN
Chain of Glucose-6-phosphate 1-dehydrogenase (P11413 whole entry): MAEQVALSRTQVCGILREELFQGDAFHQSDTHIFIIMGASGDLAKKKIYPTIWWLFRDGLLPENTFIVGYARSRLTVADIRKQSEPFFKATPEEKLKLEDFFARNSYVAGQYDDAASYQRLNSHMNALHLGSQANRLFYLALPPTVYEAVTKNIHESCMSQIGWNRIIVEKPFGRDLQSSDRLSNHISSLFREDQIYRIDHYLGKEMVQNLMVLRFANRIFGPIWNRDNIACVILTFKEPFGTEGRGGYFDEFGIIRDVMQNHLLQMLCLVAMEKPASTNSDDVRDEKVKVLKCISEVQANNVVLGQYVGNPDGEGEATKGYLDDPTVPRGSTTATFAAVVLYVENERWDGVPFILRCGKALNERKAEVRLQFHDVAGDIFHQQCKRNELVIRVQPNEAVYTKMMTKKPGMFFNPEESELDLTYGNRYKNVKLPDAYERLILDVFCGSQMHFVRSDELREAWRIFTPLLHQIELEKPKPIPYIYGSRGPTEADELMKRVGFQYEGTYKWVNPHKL
Chain of Large T antigen (P03070 whole entry): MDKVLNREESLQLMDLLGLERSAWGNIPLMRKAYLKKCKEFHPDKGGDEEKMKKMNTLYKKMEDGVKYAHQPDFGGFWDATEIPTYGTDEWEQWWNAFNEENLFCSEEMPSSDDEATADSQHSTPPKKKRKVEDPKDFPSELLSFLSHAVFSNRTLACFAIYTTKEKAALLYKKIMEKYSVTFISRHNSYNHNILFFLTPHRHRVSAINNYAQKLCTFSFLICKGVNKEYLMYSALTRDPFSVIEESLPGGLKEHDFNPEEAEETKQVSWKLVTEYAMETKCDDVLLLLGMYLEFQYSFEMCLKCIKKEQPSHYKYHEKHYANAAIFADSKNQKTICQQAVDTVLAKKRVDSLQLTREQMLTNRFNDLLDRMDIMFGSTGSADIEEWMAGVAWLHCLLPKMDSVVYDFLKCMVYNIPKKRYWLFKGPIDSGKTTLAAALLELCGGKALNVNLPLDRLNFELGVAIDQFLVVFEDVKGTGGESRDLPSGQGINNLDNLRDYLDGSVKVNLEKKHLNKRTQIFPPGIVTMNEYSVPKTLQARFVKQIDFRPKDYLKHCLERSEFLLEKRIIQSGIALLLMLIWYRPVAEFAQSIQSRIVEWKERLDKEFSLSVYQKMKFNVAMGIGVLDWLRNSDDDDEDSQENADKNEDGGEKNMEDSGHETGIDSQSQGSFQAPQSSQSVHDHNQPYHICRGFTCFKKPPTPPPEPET
Chain of DNA dC->dU-editing enzyme APOBEC-3A (P31941 whole entry): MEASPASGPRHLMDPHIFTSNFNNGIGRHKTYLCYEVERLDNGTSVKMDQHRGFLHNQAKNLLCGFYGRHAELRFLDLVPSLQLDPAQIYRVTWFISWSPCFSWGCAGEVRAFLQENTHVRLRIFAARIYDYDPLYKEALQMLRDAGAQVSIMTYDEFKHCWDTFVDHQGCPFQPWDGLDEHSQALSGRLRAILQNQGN

On to `c1csc(-c2csc(-c3cccs3)n2)c1`, for which the IC50 was 20.1 µM (active) in [1], 28.2 µM (active) in assay [2], 25.3 µM (active) in assay [3] and 5.92 µM (active) in assay [4].

With `Cc1cc(C)cc(OCC(=O)N/N=C\c2cn(C)nc2C)c1`, the IC50 in assay [5], in assay [6] and in assay [7] was > 79.4 µM (inactive) throughout.

For the compound `c1cncc(CNc2ccc3c(c2)OCO3)c1`, the figures for the IC50 in assay [8] and in assay [9] were > 80 µM (inactive) and 25.4 µM (active), respectively.

As to `CCC1CCCCN1CCCNC(=O)c1ccc(CS(=O)(=O)Cc2ccccc2F)o1` (stereo unspecified), the IC50 in [5], in assay [6] and in assay [7] was > 79.4 µM (inactive) each time.

In the case of `NC(=O)C[n+]1cccc2ccccc21`, the EC50 in assay [10] was 29.7 µM (active); in [14], 22.3 µM (active). For the same compound, the IC50 in assay [11] is 2.52 µM (active); in assay [13], 2.69 µM (active). The AC50 in [12] is 311 µM (active).

Regarding `CC1=NN(C(N)=S)C(=O)C1N=Nc1ccc(Cl)cc1` (stereo unspecified), the IC50 in [1] is 2.96 µM (active); in [2], 2.58 µM (active); in [3], 1.59 µM (active); in [4] it was 2.07 µM (active).
